Test system: IL-12 induced STAT4 phosphorylation mediated by TYK2/JAK2
Assay: IL-12 induced pSTAT4 in human PBMC
Assay type: cell-based
Details: 1 hr compound, 1.7 ng/mL IL-12 for 30 minutes
How it was run: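 Thawed human PBMC were pre-incubated with compound for 1 hr at 37 °C (0.1% DMSO), then stimulated with 1.7 ng/mL IL-12 for 30 minutes. Phospho-STAT4 and total STAT4 were measured in cell lysates by MSD.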

IC50 | SMILES
< 0.1 µM | CO[C@@H]1CCC1NC(=O)c1cnn2c3c(c(Nc4cccn([C@H]5[C@@H]6COC[C@@H]65)c4=O)nc12)OCCN3 (some centres unmarked) [Compound I-762]
< 0.1 µM | CC(C)n1cccc(Nc2nc3c(C(=O)NC4CCC4(F)F)cnn3c3c2OCCN3)c1=O (centres unmarked) [Compound I-765]
< 0.1 µM | CC(C)n1cccc(Nc2nc3c(C(=O)N[C@H]4CCC4(F)F)cnn3c3c2OCCN3)c1=O [Compound I-766]
< 0.1 µM | O=C(NC1CCC1(F)F)c1cnn2c3c(c(Nc4cccn([C@H]5[C@@H]6COC[C@@H]65)c4=O)nc12)OCCN3 (some centres unmarked) [Compound I-768]
< 0.1 µM | O=C(N[C@@H]1CCC1(F)F)c1cnn2c3c(c(Nc4cccn([C@H]5[C@@H]6COC[C@@H]65)c4=O)nc12)OCCN3 [Compound I-769]
< 0.1 µM | O=C(N[C@@H]1CCC1(F)F)c1cnn2c3c(c(-c4cn(C5COC5)c5ncccc45)nc12)OCCN3 [Compound I-772]
< 0.1 µM | O=C(NC1CC[C@@H]1F)c1cnn2c3c(c(-c4cn(C5COC5)c5ncccc45)nc12)OCCN3 (some centres unmarked) [Compound I-774]
< 0.1 µM | O=C(N[C@H]1CCC1(F)F)c1cnn2c3c(c(-c4cn([C@H]5C[C@H](O)C5)c5ncccc45)nc12)OCCN3 [Compound I-776]
< 0.1 µM | CNc1cc(Nc2cccn([C@H]3C[C@@H](OC)C3)c2=O)nc2c(C(=O)NC3CC[C@@H]3OC)cnn12 (some centres unmarked) [Compound I-780]
< 0.1 µM | CNc1ccc(-c2cc(NC)n3ncc(C(=O)N[C@H]4CC[C@H]4F)c3n2)n2ccnc12 [Compound I-784]
< 0.1 µM | CNc1cc(-c2cn([C@@H]3COC[C@H]3OC)c3ccccc23)nc2c(C(=O)N[C@H]3CC[C@H]3O)cnn12 [Compound I-787]
< 0.1 µM | CNc1cc(-c2cn([C@H]3COC[C@@H]3OC)c3ccccc23)nc2c(C(=O)N[C@H]3CC[C@H]3O)cnn12 [Compound I-790]
< 0.1 µM | CNc1cc(-c2cn(CCOC)c3ncccc23)nc2c(C(=O)NC3CC[C@@H]3OC)cnn12 (some centres unmarked) [Compound I-795]
< 0.1 µM | CNc1cc(-c2cn([C@H]3CCOC[C@H]3OC)c3ncccc23)nc2c(C(=O)N[C@H]3CC[C@@H]3F)cnn12 [Compound I-796]
< 0.1 µM | CNc1cc(-c2cn([C@@H]3CCOC[C@@H]3OC)c3ncccc23)nc2c(C(=O)N[C@H]3CC[C@@H]3F)cnn12 [Compound I-798]
< 0.1 µM | CNc1cc(-c2cn([C@H]3CCOC[C@@H]3F)c3ncccc23)nc2c(C(=O)N[C@H]3CC[C@@H]3OC)cnn12 [Compound I-802]
< 0.1 µM | CNc1cc(-c2cn([C@@H]3CCOC[C@H]3F)c3ncccc23)nc2c(C(=O)N[C@H]3CC[C@@H]3OC)cnn12 [Compound I-804]
< 0.1 µM | CNc1cc(-c2cn([C@@H]3CCC4(C3)OCCO4)c3ncccc23)nc2c(C(=O)N[C@H]3CC[C@@H]3OC)cnn12 [Compound I-806]
< 0.1 µM | CNc1cc(-c2cn([C@H]3CCC4(C3)OCCO4)c3ncccc23)nc2c(C(=O)N[C@H]3CC[C@@H]3OC)cnn12 [Compound I-808]
< 0.1 µM | CNc1cc(-c2cn([C@H]3CCOC[C@H]3OC)c3ncccc23)nc2c(C(=O)N[C@@H]3CCC3(F)F)cnn12 [Compound I-811]
< 0.1 µM | CNc1cc(-c2cnc3n([C@H]4COC[C@@H]4O)cccc2-3)nc2c(C(=O)NC3CC3)cnn12 [Compound I-816]
< 0.1 µM | CNc1cc(-c2cnc3n([C@@H]4COC[C@H]4O)cccc2-3)nc2c(C(=O)NC3CC3)cnn12 [Compound I-817]
< 0.1 µM | CNc1cc(-c2cnc3n([C@H]4CCOC[C@@H]4O)cccc2-3)nc2c(C(=O)NC3CC3)cnn12 [Compound I-819]
< 0.1 µM | CNc1cc(-c2cnc3n([C@H]4COC[C@@H]4O)cccc2-3)nc2c(C(=O)N[C@@H]3C[C@@H]3F)cnn12 [Compound I-820]
< 0.1 µM | CNc1cc(-c2cnc3n([C@@H]4CCOC[C@H]4O)cccc2-3)nc2c(C(=O)N[C@@H]3C[C@@H]3F)cnn12 [Compound I-824]
< 0.1 µM | CNc1cc(-c2cnc3n([C@H]4CCOC[C@@H]4O)cccc2-3)nc2c(C(=O)N[C@@H]3C[C@@H]3F)cnn12 [Compound I-825]
